# From US20240041877A1, “DOSAGE REGIME AND METHOD FOR TREATING PULMONARY ARTERIAL HYPERTENSION” (Altavant Sciences GmbH, priority 2019, published 2024)
# Experiment: Part 2 (MAD): plasma pharmacokinetics after BID oral KAR5585 for 14 days (incl. accumulation ratios and dose proportionality)
# [1] = 200 mg/dose Fed Cohort 3, Day 1 PM, Geo. Mean
# [2] = 200 mg/dose Fed Cohort 3, Day 1 PM, Mean
# [3] = 200 mg/dose Fed Cohort 3, Day 7 AM, Geo. Mean
# [4] = 200 mg/dose Fed Cohort 3, Day 7 AM, Mean
# [5] = 200 mg/dose Fed Cohort 3, Day 7 PM, Geo. Mean
# [6] = 200 mg/dose Fed Cohort 3, Day 7 PM, Mean
# [7] = 200 mg/dose Fed Cohort 3, Day 14, Geo. Mean
# [8] = 200 mg/dose Fed Cohort 3, Day 14, Mean
# [9] = 400 mg/dose Fasted Cohort 4, Day 1 AM, Geo. Mean
# [10] = 400 mg/dose Fasted Cohort 4, Day 1 AM, Mean
# [11] = 400 mg/dose Fasted Cohort 4, Day 1 PM, Geo. Mean
# [12] = 400 mg/dose Fasted Cohort 4, Day 1 PM, Mean
# [13] = 400 mg/dose Fasted Cohort 4, Day 7 AM, Geo. Mean
# [14] = 400 mg/dose Fasted Cohort 4, Day 7 AM, Mean
# [15] = 400 mg/dose Fasted Cohort 4, Day 7 PM, Geo. Mean
# [16] = 400 mg/dose Fasted Cohort 4, Day 7 PM, Mean
# [17] = 400 mg/dose Fasted Cohort 4, Day 14, Geo. Mean
# [18] = 400 mg/dose Fasted Cohort 4, Day 14, Mean
# [19] = power model, PK Day 1 (AM), 100 to 400 mg KAR5585 repeat oral doses, fed
# [20] = power model, PK Day 7 (AM), 100 to 400 mg KAR5585 repeat oral doses, fed
# [21] = power model, PK Day 14 (AM), 100 to 400 mg KAR5585 repeat oral doses, fed
# Description: Food effect was to be evaluated in Part 1, Period 2.
# Pharmacokinetic data were to be summarized descriptively.
structure (smiles),measurement,setting,value
"CCOC(=O)[C@@H]1CC2(CCN(c3cc(O[C@H](c4ccc(Cl)cc4-c4ccccc4)C(F)(F)F)nc(N)n3)CC2)CN1 [KAR5585, (S)-ethyl 8-(2-amino-6-((R)-1-(5-chloro-[1,1′-biphenyl]-2-yl)-2,2,2-trifluoroethoxy)pyrimidin-4-yl)-2,8-diazaspiro[4.5]decane-3-carboxylate]",C12,[1],9.57 ng/mL
same,CL/F,[1],493 L/h
same,Cmax,[1],0.0854 µg/mL
same,Cmax/D,[1],0.427 (ng/mL)/mg
same,t1/2,[1],4.24 h
same,AUC0-12,[2],0.344 µg·h/mL
same,AUC0-24,[2],0.601 µg·h/mL
same,AUC0-24/D,[2],1.5 (hr*ng/mL)/mg
same,AUC0-∞,[2],0.417 µg·h/mL
same,C12,[2],9.92 ng/mL
same,CL/F,[2],507 L/h
same,Cmax,[2],0.0909 µg/mL
same,Cmax/D,[2],0.455 (ng/mL)/mg
same,t1/2,[2],4.34 h
same,AUC0-12,[3],0.217 µg·h/mL
same,AUC0-∞,[3],0.256 µg·h/mL
same,C12,[3],7.36 ng/mL
same,CL/F,[3],924 L/h
same,Cmax,[3],0.0456 µg/mL
same,Cmax/D,[3],0.228 (ng/mL)/mg
same,t1/2,[3],4.21 h
same,AUC0-12,[4],0.23 µg·h/mL
same,C12,[4],7.71 ng/mL
same,CL/F,[4],978 L/h
same,Cmax,[4],0.0488 µg/mL
same,Cmax/D,[4],0.244 (ng/mL)/mg
same,t1/2,[4],4.30 h
same,Tmax,"200 mg/dose Fed Cohort 3, Day 7 AM, Median",3.0 h
same,AUC0-12,[5],0.201 µg·h/mL
same,AUC0-24,[5],0.414 µg·h/mL
same,AUC0-24/D,[5],1.03 (hr*ng/mL)/mg
same,AUC0-∞,[5],0.289 µg·h/mL
same,C12,[5],11.3 ng/mL
same,CL/F,[5],869 L/h
same,Cmax,[5],0.0391 µg/mL
same,Cmax/D,[5],0.195 (ng/mL)/mg
same,t1/2,[5],5.58 h
same,AUC0-12,[6],0.207 µg·h/mL
same,AUC0-24,[6],0.431 µg·h/mL
same,AUC0-24/D,[6],1.08 (hr*ng/mL)/mg
same,AUC0-∞,[6],0.29 µg·h/mL
same,C12,[6],12.2 ng/mL
same,CL/F,[6],890 L/h
same,Cmax/D,[6],0.213 (ng/mL)/mg
same,t1/2,[6],6.20 h
same,AUC0-24,[7],0.199 µg·h/mL
same,AUC0-24/D,[7],0.993 (hr*ng/mL)/mg
same,C24,[7],BLQ
same,CL/F,[7],1130 L/h
same,Cmax/D,[7],0.217 (ng/mL)/mg
same,AUC0-12,[8],0.188 µg·h/mL
same,AUC0-24,[8],0.212 µg·h/mL
same,AUC0-24/D,[8],1.06 (hr*ng/mL)/mg
same,AUC0-∞,[8],0.216 µg·h/mL
same,C24,[8],BLQ
same,CL/F,[8],1200 L/h
same,Cmax,[8],0.0488 µg/mL
same,Cmax/D,[8],0.244 (ng/mL)/mg
same,"Mean CL/F, Day 1","400 mg KAR5585 BID, fed",1730 L/h
same,"Mean steady-state CL/F, Day 14","400 mg KAR5585 BID, fed",1140 L/h
same,AUC0-12,[9],0.253 µg·h/mL
same,AUC0-∞,[9],0.272 µg·h/mL
same,C12,[9],7.44 ng/mL
same,CL/F,[9],1470 L/h
same,Cmax,[9],0.074 µg/mL
same,Cmax/D,[9],0.185 (ng/mL)/mg
same,t1/2,[9],3.00 h
same,AUC0-12,[10],0.281 µg·h/mL
same,C12,[10],7.49 ng/mL
same,CL/F,[10],1730 L/h
same,Cmax,[10],0.0818 µg/mL
same,Cmax/D,[10],0.205 (ng/mL)/mg
same,AUC0-12,[11],0.501 µg·h/mL
same,AUC0-24/D,[11],0.950 (hr*ng/mL)/mg
same,AUC0-∞,[11],0.633 µg·h/mL
same,C12,[11],16.6 ng/mL
same,CL/F,[11],632 L/h
same,Cmax/D,[11],0.276 (ng/mL)/mg
same,t1/2,[11],4.18 h
same,AUC0-12,[12],0.528 µg·h/mL
same,AUC0-24/D,[12],1.01 (hr*ng/mL)/mg
same,AUC0-∞,[12],0.657 µg·h/mL
same,C12,[12],17.1 ng/mL
same,CL/F,[12],662 L/h
same,Cmax,[12],0.124 µg/mL
same,Cmax/D,[12],0.310 (ng/mL)/mg
same,t1/2,[12],4.33 h
same,AUC0-12,[13],0.473 µg·h/mL
same,AUC0-∞,[13],0.577 µg·h/mL
same,C12,[13],15.1 ng/mL
same,CL/F,[13],846 L/h
same,Cmax,[13],0.0933 µg/mL
same,Cmax/D,[13],0.228 (ng/mL)/mg
same,t1/2,[13],4.65 h
same,AUC0-12,[14],0.483 µg·h/mL
same,AUC0-∞,[14],0.588 µg·h/mL
same,C12,[14],15.5 ng/mL
same,CL/F,[14],865 L/h
same,Cmax,[14],0.0959 µg/mL
same,Cmax/D,[14],0.240 (ng/mL)/mg
same,t1/2,[14],4.90 h
same,AUC0-12,[15],0.394 µg·h/mL
same,AUC0-24/D,[15],1.09 (hr*ng/mL)/mg
same,AUC0-∞,[15],0.534 µg·h/mL
same,C12,[15],20.1 ng/mL
same,CL/F,[15],954 L/h
same,Cmax,[15],0.0634 µg/mL
same,Cmax/D,[15],0.158 (ng/mL)/mg
same,t1/2,[15],4.92 h
same,AUC0-12,[16],0.404 µg·h/mL
same,AUC0-24,[16],0.887 µg·h/mL
same,AUC0-24/D,[16],1.11 (hr*ng/mL)/mg
same,AUC0-∞,[16],0.538 µg·h/mL
same,C12,[16],20.8 ng/mL
same,CL/F,[16],969 L/h
same,Cmax/D,[16],0.172 (ng/mL)/mg
same,t1/2,[16],4.93 h
same,AUC0-12,[17],0.359 µg·h/mL
same,AUC0-24,[17],0.433 µg·h/mL
same,AUC0-24/D,[17],1.08 (hr*ng/mL)/mg
same,AUC0-∞,[17],0.465 µg·h/mL
same,C12,[17],11.0 ng/mL
same,CL/F,[17],1110 L/h
same,Cmax,[17],0.0853 µg/mL
same,Cmax/D,[17],0.213 (ng/mL)/mg
same,t1/2,[17],6.08 h
same,AUC0-12,[18],0.366 µg·h/mL
same,AUC0-24,[18],0.444 µg·h/mL
same,AUC0-24/D,[18],1.11 (hr*ng/mL)/mg
same,CL/F,[18],1140 L/h
same,Cmax/D,[18],0.222 (ng/mL)/mg
same,Tmax,"400 mg/dose Fasted Cohort 4, Day 14, Median",1.5 h
same,steady-state plasma levels achieved by,BID oral KAR5585 for 14 days,≤ 7 days
same,"Dose proportionality analysis, AUC0-12: Intercept estimate",[19],0.969
same,"Dose proportionality analysis, AUC0-inf: Intercept estimate",[19],0.817
same,"Dose proportionality analysis, Cmax: Intercept estimate",[19],0.198
same,"Dose proportionality analysis, AUC0-12: Intercept estimate",[20],1.51
same,"Dose proportionality analysis, Cmax: Intercept estimate",[20],0.688
same,"Dose proportionality analysis, AUC0-12: Intercept estimate",[21],2.37
same,"Dose proportionality analysis, Cmax: Intercept estimate",[21],0.705
